Assay [1] concerns the target T1, AIF/CHCHD4 (Homo sapiens, UniProt O95831).
T1 construct: The AIF103-613 protein (AIF protein fragment 103-613) and CHCHD4 protein were produced in BL21 + DE3 bacteria; made in house; host or cells: E. coli BL21 + DE3 (RIPL)
The experiment in a line: AlphaScreen (ALPHA) assay of the AIF103-613/CHCHD4 interaction. Type of assay: binding. The source says: This method comprises the use: • of the AIF103-613 and CHCHD4 proteins previously produced; • of an AlphaScreen® kit (PerkinElmer) comprising donor beads and acceptor beads capable of conjugating to the AIF and CHCHD4 proteins; • of a positive control: the N27 peptide (corresponding to the 27 amino acids of the N-ter end of the CHCHD4 protein, as described in Hangen et al., 2015); • of a negative control: 0.1% bovine serum albumin (BSA) solution in phosphate buffered saline (PBS); • of a library of compounds to be tested: the Prestwick chemical compound library (Prestwick Chemical Library®) .
The ALPHA assay was first of all carried out at high throughput, using 384-well white microplates (Greiner, reference 781075), using 25 µl of total volume per well. The proteins, the positive control and the beads were diluted in a 0.1% BSA/PBS solution. All the distributions were carried out with an electronic multipipet, then the plates were centrifuged (200 g, 1 min). The plates were hermetically closed and incubated in the dark in a room at 23° C.
A library of 1280 small molecules, supplied by Prestwick Chemicals (Prestwick Chemical Library®) was screened. This library comprises compounds with various chemical and pharmacological properties, which are already approved by the health authorities, such as the FDA (Food and Drug Administration) or the EMEA (European Medicines Evaluation Agency). Each compound of the library is diluted in a 0.1% DMSO solution and used at a concentration of 10 µM. First of all, 5 µl of compound at […], of N27 at 3 µM (positive control) or of 0.1% BSA/PBS (negative control) were added to the wells. Secondly, 5 µl of AIF103-613 proteins were incubated with the compounds for 20 min before the addition of 5 µl of CHCHD4 for 2 h. Thirdly, 10 µl of a mixture of donor beads and acceptor beads at […] were incubated for 3 h. The analysis of the results was carried out by means of an EnSpire® multimode plate reader (PerkinElmer).
For each 384-well plate, 16 wells correspond to the positive control and 16 wells correspond to the negative control. The positive control corresponds to the measurement of the interaction of the AIF103-613 and CHCHD4 proteins in the presence of the N27 peptide (equivalent to the minimal signal). The negative control corresponds to the measurement of the interaction of the AIF103-613 and CHCHD4 proteins in the presence of the buffer (0.1% BSA/PBS) (equivalent to the maximum signal).
Following the high-throughput screening, the compounds are selected if the signal obtained in the presence of the compound is less than the following threshold TH:
For each compound previously selected, the ALPHA assay is repeated manually using another batch of powder of the compounds.
Each compound is tested at 10 µM and 30 µM due to the Hook effect particular to the ALPHAscreen technology and in order to select the compounds giving a signal located in the ascending part of the Hook bell and therefore active at low dose in a drug development perspective.
The compound is selected if: • the signal obtained in the presence of the compound is less than the threshold TH as described above; and • the signal obtained at 30 µM is less than the signal obtained at 10 µM.
In addition, for each compound thus selected, the dose-effect relationship of the compound is determined. This makes it possible to determine the median inhibitory concentration (IC50) of said compound.

Assay [2] deals with A549 non-small-cell lung cancer cells. The experiment in a line: Cytotoxicity by lactate dehydrogenase (LDH) release in A549 cells. Type of assay: cell-based, human. The note with it: A549, 3 h treatment; lowest dose tested for which a toxicity greater than 20% was measured. The procedure:
The effect of the compounds on the metabolism of a non-small-cell lung cancer cell line (A549) was tested using the Seahorse technology (XFe96, Agilent) and the cell death was evaluated by measuring the release of lactate dehydrogenase (LDH, Promega). The cells seeded into 96-well microplates (20 000 cells/well) were treated with the compounds as a dose response (0.03; 0.1; 0.3; 1; 3; 10 µM) for 3 h in serum-free DMEM medium and then mitochondrial respiration (OXPHOS) and glycolysis were measured in real time. At the end of the experiment, the culture supernatant was removed in order to analyze the cell death, and the number of cells was determined by counting, after labelling the cells with DAPI, using a fluorescence microscope (Zeiss). The number of cells per well at the end of the experiment was then used to normalize the results obtained by Seahorse.
The compound concentration indicated in the “toxicity” column represents the lowest dose tested for which a toxicity greater than 20% was measured.

Assay [3] has as its target T2, AIF103-613/CHCHD4 (Homo sapiens, UniProt O95831).
T2 construct: The AIF103-613 protein (AIF protein fragment 103-613) and CHCHD4 protein were produced in BL21 + DE3 bacteria; made in house; host or cells: E. coli BL21 + DE3 (RIPL)
The experiment in a line: Surface plasmon resonance (SPR, Biacore) assay of the AIF/CHCHD4 interaction. Type of assay: binding. Particulars: compound preincubated 20 min with AIF, injected onto immobilized CHCHD4; criterion at least 50% of the inhibition obtained with N27 peptide. Here is the method: FIG. 3: SPR analysis of the compounds identified by Alphascreen. (A) SPR validation of thioridazine and of mitoxantrone, by means of the […], as inhibitors of the AIF103-613/CHCHD4 interaction. The compounds at 10 µM were incubated for 20 min with AIF in DPBS at pH 7.4 at ambient temperature. Then, the mixture was then injected for 3 minutes at a rate of 30 µl per minute onto the CHCHD4 protein. The N27 peptide at 3 µM was used as a […]. (B) Surface plasmon resonance (SPR) sensorgrams, making it possible to follow the binding of AIF103-613 to CHCHD4 in the presence of thioridazine hydrochloride or of mitoxantrone dihydrochloride. The thioridazine hydrochloride and the mitoxantrone dihydrochloride were tested at increasing concentrations ranging from 0.5 µM to 50 µM.
Some of the compounds identified by means of the Alpha assay as described above were tested by surface plasmon resonance (Biacore™ T100, GE Healthcare Life Sciences). The CHCHD4 protein was immobilized covalently on a dextran matrix comprising COOH functional carboxyl groups (Series S CM5® sensor chip, GE Healthcare Life Sciences, 29149603). […]
The sensorgrams were analyzed using the BIAevaluation software (Version 2.0.4).
The inhibition of the interaction of the AIF and CHCHD4 proteins by thioridazine and mitoxantrone was analyzed by means of a surface plasmon resonance assay (cf. FIG. 3). […]

Assay [4] has as its target T3, AIF103-613 protein (AIF protein fragment 103-613) (human, UniProt O95831 103-613).
T3 construct: also called apoptosis-inducing factor
The experiment in a line: AlphaScreen cross-titration.

Setting [5] is: obtained manually using the Alphascreen assay, read-out: IC50 AIF/CHCHD4.

Where a name gives a salt, the structure may show the parent alone. Read-outs that look alike come from different tables or passages of the source.

T1 sequence (O95831 103-613 limits assumed): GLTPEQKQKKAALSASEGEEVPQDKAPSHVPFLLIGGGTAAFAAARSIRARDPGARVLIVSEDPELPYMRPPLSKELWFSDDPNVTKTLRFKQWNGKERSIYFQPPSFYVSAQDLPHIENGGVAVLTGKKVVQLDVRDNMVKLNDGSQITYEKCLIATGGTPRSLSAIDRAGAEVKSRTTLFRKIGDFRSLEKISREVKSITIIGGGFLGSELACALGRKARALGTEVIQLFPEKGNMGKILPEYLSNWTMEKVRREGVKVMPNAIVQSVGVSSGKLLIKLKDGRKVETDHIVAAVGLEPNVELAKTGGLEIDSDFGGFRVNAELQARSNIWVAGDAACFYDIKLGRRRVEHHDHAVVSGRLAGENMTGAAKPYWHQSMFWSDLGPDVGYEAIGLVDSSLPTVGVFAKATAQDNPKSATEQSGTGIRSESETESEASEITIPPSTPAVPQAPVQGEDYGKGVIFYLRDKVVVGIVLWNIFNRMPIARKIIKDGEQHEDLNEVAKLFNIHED
T2 sequence (O95831 103-613 limits assumed): as above
T3 sequence (O95831 103-613): as the sequence (O95831 103-613 limits assumed) above

In the case of Bromocriptine mesylate, in assay [1] (setting [5]), the IC50 was found to be 4.57 µM. Also, in assay [2], the Cellular toxicity is given as 3 µM.

Consider `NCCNCCNCCNCCN` [Tetraethylenepentamine pentahydrochloride], for which the IC50 in assay [1] (setting [5]) amounted to 9 µM. This molecule also gave a Cellular toxicity in assay [2] of 10 µM.

Regarding Nisoldipine, the IC50 in assay [1] (setting [5]) is 12 µM.

Turning to `CCSc1ccc2c(c1)N(CCCN1CCN(C)CC1)c1ccccc1S2.O=C(O)CC(O)C(=O)O.O=C(O)CC(O)C(=O)O` [Thiethylperazine dimalate], the IC50 in assay [1] (setting [5]) was determined as 10.6 µM. For the same molecule, in assay [2], the Cellular toxicity worked out at 10 µM.

`CO[C@H]1/C=C/O[C@@]2(C)Oc3c(C)c(O)c4c(O)c(c(/C=N/N5CCN(C6CCCC6)CC5)c(O)c4c3C2=O)NC(=O)/C(C)=C\C=C\[C@H](C)[C@H](O)[C@@H](C)[C@@H](O)[C@@H](C)[C@H](OC(C)=O)[C@@H]1C` [Rifapentine]: in assay [1] (setting [5]), the IC50 worked out at 4.8 µM. This molecule showed a Cellular toxicity in assay [2] of 10 µM.

Consider `CSc1ccc2c(c1)N(CCC1CCCCN1C)c1ccccc1S2` (stereo not shown) [Thioridazine hydrochloride], for which the IC50 in assay [1] (setting [5]) stood at 24 µM. Besides, the “inhibition of the interaction between the AIF and CHCHD4 proteins (SPR)” value in assay [3] is “capable of inhibiting the interaction”. In assay [2], this molecule showed a Cellular toxicity of 1 µM.

As to `CCN(CC)C(=S)SSC(=S)N(CC)CC` [Disulfiram], in assay [1] (setting [5]), the IC50 was 0.415 µM. In assay [2], this molecule showed a Cellular toxicity of 3 µM.

In the case of `COC(=O)C1=C(C)NC(C)=C(C(=O)OC2CCCN(Cc3ccccc3)C2)[C@@H]1c1cccc([N+](=O)[O-])c1` (stereo partly shown) [Benidipine hydrochloride], the IC50 in assay [1] (setting [5]) turned out to be 8 µM. For the same molecule, the Cellular toxicity in assay [2] was determined as 10 µM.

For the molecule Mitoxantrone dihydrochloride, the IC50 in assay [1] (setting [5]) was found to be 1.27 µM. In addition, in assay [3], the “inhibition of the interaction between the AIF and CHCHD4 proteins (SPR)” value is “capable of inhibiting the interaction”. Moreover, the Cellular toxicity in assay [2] was found to be 3 µM.

On to `COc1cc(-c2ccc(N=Nc3ccc4c(S(=O)(=O)O)cc(S(=O)(=O)O)c(N)c4c3O)c(OC)c2)ccc1N=Nc1ccc2c(S(=O)(=O)O)cc(S(=O)(=O)O)c(N)c2c1O` [Chicago sky blue 6B], for which, in assay [1] (setting [5]), the IC50 was 1.44 µM.

Molecule `O=C1OC2(c3cc(Br)c(O)cc3Oc3c2cc(Br)c(O)[c]3[Hg][OH])c2ccccc21` (stereo not shown) [Merbromine] had an IC50 in assay [1] of 0.169 µM.

B1: CHCHD4 protein (coiled-coil-helix-coiled-coil-helix domain containing 4) (other)
chain: MSYCRQEGKDRIIFVTKEDHETPSSAELVADDPNDPYEEHGLILPNGNINWNCPCLGGMASGPCGEQFKSAFSCFHYSTEEIKGSDCVDQFRAMQECMQKYPDLYPQEDEDEEEEREKKPAEQAEETAPIEATATKEEEGSS
notes: In SPR the protein was coupled covalently to a CM5 chip; also called MIA40; mitochondrial intermembrane space import and assembly protein 40
For B1, in assay [4], the binding result was “binds”.

The values above are taken from patent US20230221321A1, “METHOD FOR IDENTIFYING COMPOUNDS USEFUL FOR THE TREATMENT OF CANCER” (UNIVERSITÉ PARIS-SACLAY, priority 2020, published 2023).
